Measured values reported in the NIST ThermoML archive (doi:10.1016/j.fluid.2019.05.003).

Assay: xn = mol fraction of the nth substance listed
Conditions: 101 kPa, Liquid; for viscosity: Falling or rolling sphere viscometry; for mass density: Vibrating tube method

OCC[n+]1ccccc1.[Br-] [1-(2-hydroxyethyl)pyridinium bromide] + O
Conditions | mass density [kg/m3] | viscosity [mPa·s]
298.15 K, x1 = 0.022 | 1071.4 | 1.138
298.15 K, x1 = 0.045 | 1131.4 | 1.415
298.15 K, x1 = 0.066 | 1177.3 | 1.761
298.15 K, x1 = 0.085 | 1211 | 2.174
298.15 K, x1 = 0.114 | 1256.4 | 2.918
298.15 K, x1 = 0.152 | 1296.4 | 4.134
298.15 K, x1 = 0.195 | 1334.4 | 6.391
298.15 K, x1 = 0.226 | 1356.7 | 8.964
298.15 K, x1 = 0.261 | 1377.5 | 11.93
303.15 K, x1 = 0.022 | 1069.5 | 1.04
303.15 K, x1 = 0.045 | 1129.2 | 1.268
303.15 K, x1 = 0.066 | 1174.8 | 1.576
303.15 K, x1 = 0.085 | 1208.3 | 1.937
303.15 K, x1 = 0.114 | 1251.9 | 2.577
303.15 K, x1 = 0.152 | 1293.5 | 3.62
303.15 K, x1 = 0.195 | 1331.4 | 5.528
303.15 K, x1 = 0.226 | 1353.6 | 7.799
303.15 K, x1 = 0.261 | 1374.3 | 10.25
308.15 K, x1 = 0.022 | 1067.5 | 0.947
308.15 K, x1 = 0.045 | 1126.8 | 1.148
308.15 K, x1 = 0.066 | 1172.2 | 1.424
308.15 K, x1 = 0.085 | 1205.7 | 1.744
308.15 K, x1 = 0.114 | 1247.7 | 2.309
308.15 K, x1 = 0.152 | 1290.5 | 3.233
308.15 K, x1 = 0.195 | 1328.4 | 4.908
308.15 K, x1 = 0.226 | 1350.4 | 6.784
308.15 K, x1 = 0.261 | 1371.2 | 8.888
313.15 K, x1 = 0.022 | 1065.2 | 0.867
313.15 K, x1 = 0.045 | 1124.3 | 1.046
313.15 K, x1 = 0.066 | 1169.6 | 1.294
313.15 K, x1 = 0.085 | 1202.9 | 1.581
313.15 K, x1 = 0.114 | 1244.9 | 2.082
313.15 K, x1 = 0.152 | 1287.5 | 2.894
313.15 K, x1 = 0.195 | 1325.3 | 4.33
313.15 K, x1 = 0.226 | 1347.3 | 5.9
313.15 K, x1 = 0.261 | 1368 | 7.704
318.15 K, x1 = 0.022 | 1062.7 | 0.8
318.15 K, x1 = 0.045 | 1121.8 | 0.96
318.15 K, x1 = 0.066 | 1166.9 | 1.184
318.15 K, x1 = 0.085 | 1200.1 | 1.44
318.15 K, x1 = 0.114 | 1241.9 | 1.887
318.15 K, x1 = 0.152 | 1284.5 | 2.604
318.15 K, x1 = 0.195 | 1322.2 | 3.868
318.15 K, x1 = 0.226 | 1344.2 | 5.148
318.15 K, x1 = 0.261 | 1364.8 | 6.721
323.15 K, x1 = 0.022 | 1060.2 | 0.741
323.15 K, x1 = 0.045 | 1119.1 | 0.886
323.15 K, x1 = 0.066 | 1164.1 | 1.086
323.15 K, x1 = 0.085 | 1197.2 | 1.32
323.15 K, x1 = 0.114 | 1238.9 | 1.721
323.15 K, x1 = 0.152 | 1281.4 | 2.36
323.15 K, x1 = 0.195 | 1319 | 3.478
323.15 K, x1 = 0.226 | 1341 | 4.527
323.15 K, x1 = 0.261 | 1361.6 | 5.895
328.15 K, x1 = 0.022 | 1057.8 | 0.692
328.15 K, x1 = 0.045 | 1116.2 | 0.82
328.15 K, x1 = 0.066 | 1161.1 | 1.008
328.15 K, x1 = 0.085 | 1194.2 | 1.215
328.15 K, x1 = 0.114 | 1235.9 | 1.578
328.15 K, x1 = 0.152 | 1278.3 | 2.149
328.15 K, x1 = 0.195 | 1315.9 | 3.137
328.15 K, x1 = 0.226 | 1337.8 | 4.03
328.15 K, x1 = 0.261 | 1358.4 | 5.207
333.15 K, x1 = 0.022 | 1055.5 | 0.645
333.15 K, x1 = 0.045 | 1113.1 | 0.766
333.15 K, x1 = 0.066 | 1158.1 | 0.933
333.15 K, x1 = 0.085 | 1191.2 | 1.126
333.15 K, x1 = 0.114 | 1232.8 | 1.451
333.15 K, x1 = 0.152 | 1275.2 | 1.969
333.15 K, x1 = 0.195 | 1312.7 | 2.833
333.15 K, x1 = 0.226 | 1334.6 | 3.615
333.15 K, x1 = 0.261 | 1355.2 | 4.632
338.15 K, x1 = 0.022 | 1053.3 | 0.608
338.15 K, x1 = 0.045 | 1111 | 0.716
338.15 K, x1 = 0.066 | 1155.7 | 0.869
338.15 K, x1 = 0.085 | 1187.8 | 1.045
338.15 K, x1 = 0.114 | 1229.7 | 1.344
338.15 K, x1 = 0.152 | 1272 | 1.809
338.15 K, x1 = 0.195 | 1309.5 | 2.599
338.15 K, x1 = 0.226 | 1331.4 | 3.284
338.15 K, x1 = 0.261 | 1352 | 4.101
343.15 K, x1 = 0.022 | 1051 | 0.571
343.15 K, x1 = 0.045 | 1108.4 | 0.674
343.15 K, x1 = 0.066 | 1153 | 0.816
343.15 K, x1 = 0.085 | 1184.6 | 0.976
343.15 K, x1 = 0.114 | 1226.5 | 1.257
343.15 K, x1 = 0.152 | 1268.8 | 1.696
343.15 K, x1 = 0.195 | 1306.3 | 2.37
343.15 K, x1 = 0.226 | 1328.2 | 2.945
343.15 K, x1 = 0.261 | 1348.7 | 3.732
348.15 K, x1 = 0.022 | 1048.8 | 0.538
348.15 K, x1 = 0.045 | 1105.8 | 0.634
348.15 K, x1 = 0.066 | 1150.3 | 0.763
348.15 K, x1 = 0.085 | 1181.8 | 0.911
348.15 K, x1 = 0.114 | 1223.1 | 1.197
348.15 K, x1 = 0.152 | 1265.5 | 1.605
348.15 K, x1 = 0.195 | 1303 | 2.228
348.15 K, x1 = 0.226 | 1324.9 | 2.693
348.15 K, x1 = 0.261 | 1345.5 | 3.372
